Values quoted from earlier work, collected in US20040265344A1, “Aloe suppositories” (priority 2003, published 2004).

Tests used:
[1] = system: rat colonic mucosa sodium and potassium adenosine triphosphatase (ATP-ase); conditions: in vitro
[2] = system: residual fluid volume

O=C1c2c(O)cccc2Cc2cc(CO)cc(O)c21 [Aloe-emodin-9-anthrone]
effect on rat colonic mucosa sodium and potassium ATP-ase [1]: inhibited

CN(C)C(=O)C(CCN1CCC(O)(c2ccc(Cl)cc2)CC1)(c1ccccc1)c1ccccc1 [loperamide]
effect on the rise in residual fluid volume [2]: did not completely inhibit
